Assay results taken from PubChem BioAssay AID1919000 (Molecular Pharmacology Branch, DTP, NCI, 2023).

System: 653999-131-R-J2-PDC complex spheroids, growth % test/control
Assay: Anticancer human tumor 653999-131-R-J2-PDC patient-derived lung adenocarcinoma cell line growth inhibition [AhR]
Conditions: for IC50: curve of first compound; for viability, T/C: stronger effect = lower value
From the text: Multicellular complex tumor spheroid response to aryl hydrocarbon receptor antagonists in combination with a variety of drugs and investigational agents in selected tumor cell lines
The current study was undertaken to assess response to aryl hydrocarbon receptor antagonists in combination with standard-of-care drugs and investigational agents in solid tumor complex spheroid models. Complex spheroids include a stromal component modeled by human endothelial cells (HUVEC) and fibroblasts modeled by human mesenchymal stem cells (MSCs). The concentration ranges selected for each drug and investigational agent were based upon clinically achievable concentrations if the clinical Cmax of the agent was known.
Compounds. The drugs and investigational agents: BAY 2416964 (NSC825713), GNF351 (NSC835774), CH-223191 (NSC835775), CPI-455 (NSC825282), aza-TdCyd (NSC777586), decitabine (NSC127716), belinostat (NSC758774), entinostat (NSC756642), pevonedistat (NSC761192), tazemetostat (NSC777109), talazoparib (NSC765396), olaparib (NSC753686), selinexor (NSC780203), nedisertib (M3814, NSC802822), bortezomib (NSC756655), venetoclax (NSC766270), doxorubicin (NSC123127), elimusertib (BAY189344, NSC800525), ceralasertib (AZD6738, NSC777638), TAK-243 (NSC785004), alisertib (NSC759677), etoposide (NSC141540), topotecan (NSC609699), eribulin (NSC707389), gemcitabine (NSC613327), carboplatin (NSC241240), cisplatin (NSC119875), and SN-38 (NSC673596) were obtained from the National Cancer Institute (NCI) Developmental Therapeutics Program Chemical Repository (32). The FDA-approved anticancer drug set is available from the Developmental Therapeutics Program at https://dtp.cancer.gov/organization/dscb/obtaining/available plates.htm. […] The stock solutions were prepared in dimethyl sulfoxide (DMSO, Sigma-Aldrich, St. Louis, MO, cat. D2650), except for the platinum compounds which were prepared in saline (Quality Biological, Gaithersburg, MD, cat. 114-055-101), at 800-fold the tested concentration and stored at -70 degrees C prior to their use. All drugs and investigational agents were tested over a range starting from a high concentration at or near the clinical Cmax and decreasing in half-log increments. If the clinical Cmax for an agent had not been determined, the highest concentration tested was 10 microM (Table 1).
Cell Culture. All cells were maintained in an incubator at 37 degrees C and 5% CO2 with 95% humidity. The PDC lines were cultured according to standard operating procedures established by the NCI PDMR (https://pdmr.cancer.gov). Briefly, all PDCs were thawed and cultured in Matrigel-coated flasks prepared with a working solution of 1X Ham's F-12 nutrient mix, without supplementation (Invitrogen, Waltham, MA, cat. 11765054), 100 U/mL penicillin-streptomycin (Invitrogen, cat. 15140122), and 2.5% Matrigel (Corning Inc., Corning, NY, cat. 354248) for the first three passages. All PDCs were cultured in complete DMEM/F-12 media containing advanced DMEM/F-12 (Invitrogen, cat. 12634028), 4.9% defined fetal bovine serum, heat inactivated (HyClone Laboratories Inc., Logan, UT, cat. SH30070.03HI), 389 ng/mL hydrocortisone (Sigma-Aldrich, cat. H4001), 9.7 ng/mL human EGF recombinant protein (Invitrogen, cat. PHG0313), 23.4 microg/mL adenine (Sigma-Aldrich, cat. A2786), 97.3 U/mL penicillin-streptomycin (Invitrogen, cat. 15140122), 1.9 mM L-glutamine (Invitrogen, cat. 25030081), and 9.7 microM Y-27632 dihydrochloride (Tocris Bioscience, Bristol, United Kingdom, cat. 1254). The PDCs were cultured in complete DMEM/F12 media without 10 microM Y-27632 dihydrochloride for at least two passages prior to the screen. The established cell lines NCI-H1341 and […] were cultured in DMEM/F-12, HEPES (Invitrogen, cat. 11330032), 5% defined fetal bovine serum (HyClone Laboratories Inc., cat. SH30070.03), ITS premix universal culture supplement [insulin (5 microg/mL), transferrin (5 microg/mL), and selenious acid (5 ng/mL)] […]
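Also: spheroids exposed to agents for seven days.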

SMILES: CCc1c2c(nc3ccc(O)cc13)-c1cc3c(c(=O)n1C2)COC(=O)[C@]3(O)CC + CC(CO)NC(=O)c1cc(-c2ccc(Cl)cc2)nn(-c2cnn(C)c2)c1=O
- IC50 (second compound 0.1 µM): 7.43 nM
- IC50 (second compound 0.316 µM): 5.82 nM
- IC50 (second compound 1 µM): 6.93 nM
- IC50 (second compound 3.16 µM): 5.13 nM
- IC50 (second compound 10 µM): 4.97 nM
- viability, T/C (second compound 0.1 µM, first compound 0.000949 µM): 68%
- viability, T/C (second compound 0.1 µM, first compound 0.003 µM): 59%
- viability, T/C (second compound 0.1 µM, first compound 0.00949 µM): 48.4%
- viability, T/C (second compound 0.1 µM, first compound 0.03 µM): 32%
- viability, T/C (second compound 0.1 µM, first compound 0.0949 µM): 21.5%
- viability, T/C (second compound 0.1 µM, first compound 0.3 µM): 12.7%
- viability, T/C (second compound 0.316 µM, first compound 0.000949 µM): 64.1%
- viability, T/C (second compound 0.316 µM, first compound 0.003 µM): 58.8%
- viability, T/C (second compound 0.316 µM, first compound 0.00949 µM): 42.3%
- viability, T/C (second compound 0.316 µM, first compound 0.03 µM): 34%
- viability, T/C (second compound 0.316 µM, first compound 0.0949 µM): 19.4%
- viability, T/C (second compound 0.316 µM, first compound 0.3 µM): 11.4%
- viability, T/C (second compound 1 µM, first compound 0.000949 µM): 67%
- viability, T/C (second compound 1 µM, first compound 0.003 µM): 60%
- viability, T/C (second compound 1 µM, first compound 0.00949 µM): 45.4%
- viability, T/C (second compound 1 µM, first compound 0.03 µM): 33.7%
- viability, T/C (second compound 1 µM, first compound 0.0949 µM): 21.2%
- viability, T/C (second compound 1 µM, first compound 0.3 µM): 13.8%
- viability, T/C (second compound 3.16 µM, first compound 0.000949 µM): 50.2%
- viability, T/C (second compound 3.16 µM, first compound 0.003 µM): 50.8%
- viability, T/C (second compound 3.16 µM, first compound 0.00949 µM): 49.9%
- viability, T/C (second compound 3.16 µM, first compound 0.03 µM): 29.1%
- viability, T/C (second compound 3.16 µM, first compound 0.0949 µM): 22.1%
- viability, T/C (second compound 3.16 µM, first compound 0.3 µM): 15.8%
- viability, T/C (second compound 10 µM, first compound 0.000949 µM): 63.2%
- viability, T/C (second compound 10 µM, first compound 0.003 µM): 55.8%
- viability, T/C (second compound 10 µM, first compound 0.00949 µM): 42.9%
- viability, T/C (second compound 10 µM, first compound 0.03 µM): 30%
- viability, T/C (second compound 10 µM, first compound 0.0949 µM): 21.8%
- viability, T/C (second compound 10 µM, first compound 0.3 µM): 16.1%

SMILES: O=C(c1cc(Cc2n[nH]c(=O)c3ccccc23)ccc1F)N1CCN(C(=O)C2CC2)CC1 + CC(CO)NC(=O)c1cc(-c2ccc(Cl)cc2)nn(-c2cnn(C)c2)c1=O
- IC50 (second compound 0.1 µM): > 10000 nM
- IC50 (second compound 0.316 µM): > 10000 nM
- IC50 (second compound 1 µM): > 10000 nM
- IC50 (second compound 3.16 µM): > 10000 nM
- IC50 (second compound 10 µM): > 10000 nM
- viability, T/C (second compound 0.1 µM, first compound 0.0316 µM): 82.1%
- viability, T/C (second compound 0.1 µM, first compound 0.1 µM): 89.5%
- viability, T/C (second compound 0.1 µM, first compound 0.316 µM): 81.5%
- viability, T/C (second compound 0.1 µM, first compound 1 µM): 83.6%
- viability, T/C (second compound 0.1 µM, first compound 3.16 µM): 79.9%
- viability, T/C (second compound 0.1 µM, first compound 10 µM): 76.9%
- viability, T/C (second compound 0.316 µM, first compound 0.0316 µM): 91%
- viability, T/C (second compound 0.316 µM, first compound 0.1 µM): 97.5%
- viability, T/C (second compound 0.316 µM, first compound 0.316 µM): 96.1%
- viability, T/C (second compound 0.316 µM, first compound 1 µM): 84.2%
- viability, T/C (second compound 0.316 µM, first compound 3.16 µM): 81.1%
- viability, T/C (second compound 0.316 µM, first compound 10 µM): 78.7%
- viability, T/C (second compound 1 µM, first compound 0.0316 µM): 84.7%
- viability, T/C (second compound 1 µM, first compound 0.1 µM): 90.4%
- viability, T/C (second compound 1 µM, first compound 0.316 µM): 89.5%
- viability, T/C (second compound 1 µM, first compound 1 µM): 85.6%
- viability, T/C (second compound 1 µM, first compound 3.16 µM): 81.7%
- viability, T/C (second compound 1 µM, first compound 10 µM): 79.5%
- viability, T/C (second compound 3.16 µM, first compound 0.0316 µM): 95%
- viability, T/C (second compound 3.16 µM, first compound 0.1 µM): 86.6%
- viability, T/C (second compound 3.16 µM, first compound 0.316 µM): 93%
- viability, T/C (second compound 3.16 µM, first compound 1 µM): 85.5%
- viability, T/C (second compound 3.16 µM, first compound 3.16 µM): 84.6%
- viability, T/C (second compound 3.16 µM, first compound 10 µM): 78.3%
- viability, T/C (second compound 10 µM, first compound 0.0316 µM): 88%
- viability, T/C (second compound 10 µM, first compound 0.1 µM): 94.5%
- viability, T/C (second compound 10 µM, first compound 0.316 µM): 82.9%
- viability, T/C (second compound 10 µM, first compound 1 µM): 84.5%
- viability, T/C (second compound 10 µM, first compound 3.16 µM): 76.3%
- viability, T/C (second compound 10 µM, first compound 10 µM): 75.7%
